Patent publication US9120775B2, “Viral polymerase inhibitors” (Biota Scientific Management Pty Ltd, priority 2012, dated 2015)
Converted amounts (≈) assume the structure as drawn. Read-outs that look alike come from different tables or passages of the source.

What was measured:
[1] = Aqueous solubility (laser nephelometry); type: physicochemical; conditions: for solubility at 30 min: aqueous assay buffer pH 6.5 with 1% DMSO, aqueous buffer, kinetic from dmso stock, pH 6.5, 1% DMSO, 30 minute incubation at 25° C.
Description: Test compounds prepared in DMSO were screened in duplicate over a range of concentrations (1.6-100 ug/mL) in different aqueous media (for example a pH6.5 buffers which are relevant to the stomach and upper regions of the small intestine and therefore important when predicting the amount of drug likely to be in solution following oral administration). Test compounds were serially diluted in 100% DMSO ranging from 10-0.16 mg/mL. These titrated DMSO stocks were then further diluted 1:100 with assay buffer and added to test plates (UV Star Griener 384 well plates), maintaining the DMSO concentration at 1%.

1b (BK) NS5BΔ21 = biological target: T1, 1b (BK) NS5BΔ21 (Hepatitis C virus genotype 1b, UniProt P26663); assay: HCV polymerase inhibition assay; type: biochemical
T1 construct: 100 nM 1b (BK) NS5BΔ21
Description: HCV polymerase reactions were carried out using a modified method of Howe et al., Antimicrobial Agents and Chemotherapy 2004 48(12): 4813-4821. Reactions contained a final concentration of, 0.5% DMSO, 100 nM 1b (BK) NS5BΔ21, 20 mM Tris-HCl pH 7.5, 5 mM MgCl2, 5 mM MnCl2, 3 mM DTT, 0.05% BSA, 0.2 U/μL RNasin, 10 μg/mL Poly(rC) template, GTP (at Km) and 0.05 μCi/μL ^33P-GTP in a total reaction volume of 50 μL. Compounds were tested in a three fold dilution series, for example starting from 50 μM. Reactions were initiated with the addition of GTP and terminated after […] with 50 μL ice cold 0.2 M EDTA. Terminated reactions were transferred to DEAE 96-well filter plates, unincorporated nucleotides washed from the filters and 50 μL scintillation fluid added prior to reading on a scintillation counter. The compound concentration that reduced ^33P-GTP incorporation by 50% (IC50) was calculated using non-linear regression.

[2] = test system: genotype 1b (Con 1) subgenomic replicon cell line; assay: HCV replicon assay, genotype 1b, Renilla luciferase reporter; type: cell-based; conditions: Hepatitis C virus; 72 hours incubation, Renilla luciferase activity
Description: A genotype 1b (Con 1) subgenomic replicon cell line based on Blight et al., Science 2000 290: 1972-1974, modified to express a Renilla luciferase reporter gene was used to assess antiviral activity of test compounds. Cell cultures were maintained in a sub-confluent state in DMEM with glutamine, 10% heat-inactivated foetal bovine serum (FBS) and G418 (Geneticin®).
For assay, cells were seeded at a density of 7000 cells/well into 96 well tissue culture trays in culture media lacking G418. Compounds were tested in a three fold dilution series, for example starting from 50 uM. After 72 hours incubation at 37° C. and 5% CO2, Renilla luciferase activity was quantified via the Promega Renilla Luciferase or Renilla-Glo™ Luciferase Assay Systems (Promega corporation. The same method was employed for replicon assays using subgenomic genotype 1a (H77) and 2a (JFH-1) replicon cell lines with a seeding cell density of 5000 cells/well for the 2a cell lines.
The compound concentration that reduced luciferase activity by 50% (EC50) was calculated using non-linear regression.

[3] = read-out: solubility ranges at pH 6.5

T1 sequence (P26663 2420-2989, stated change not applied): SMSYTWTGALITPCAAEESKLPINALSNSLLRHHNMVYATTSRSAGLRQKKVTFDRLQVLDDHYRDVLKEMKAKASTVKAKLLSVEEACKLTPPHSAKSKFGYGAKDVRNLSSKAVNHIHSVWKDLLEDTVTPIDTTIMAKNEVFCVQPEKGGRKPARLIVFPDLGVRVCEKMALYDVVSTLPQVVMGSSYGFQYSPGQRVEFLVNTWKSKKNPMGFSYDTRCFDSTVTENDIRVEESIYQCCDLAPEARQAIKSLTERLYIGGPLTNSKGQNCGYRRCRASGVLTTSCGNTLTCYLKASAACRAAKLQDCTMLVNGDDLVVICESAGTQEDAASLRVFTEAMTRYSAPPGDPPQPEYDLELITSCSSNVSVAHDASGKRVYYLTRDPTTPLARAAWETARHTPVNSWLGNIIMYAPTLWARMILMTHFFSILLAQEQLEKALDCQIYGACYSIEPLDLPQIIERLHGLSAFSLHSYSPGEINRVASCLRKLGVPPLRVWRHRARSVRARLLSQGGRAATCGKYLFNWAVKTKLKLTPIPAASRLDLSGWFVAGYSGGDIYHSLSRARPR

SMILES | solubility at 30 min ([1]; read-out: Solubility at pH 6.5) | solubility at pH 6.5 (in words) ([1]; pH 6.5, good solubility when the value is >25 ug/mL) | IC50 (1b (BK) NS5BΔ21) | EC50 [2] | solubility at 30 min [1, 3]
CNC(=O)c1c2cc(C3CC3)c(N(CC3COC3)S(C)(=O)=O)cc2nn1-c1ccc(Cl)cc1 [Compound 14, 2-(4-chlorophenyl)-5-cyclopropyl-N-methyl-6-[(methylsulfonyl)(oxetan-3-ylmethyl)amino]-2H-indazole-3-carboxamide] | 25 to 50 µg/mL (≈ 51.1 to 102 µM) | good solubility | 100 to 490 nM | < 100 nM | 
CNC(=O)c1c2cc(C3CC3)c(N(CCC3(OC)CN(C(C)=O)C3)S(C)(=O)=O)cc2nn1-c1ccc(Cl)cc1 [Compound 30, 6-[2-(1-acetyl-3-methoxy-azetidin-3-yl)ethyl-methylsulfonyl-amino]-2-(4-chlorophenyl)-5-cyclopropyl-N-methyl-indazole-3-carboxamide] |  |  | 500 to 990 nM | 500 to 990 nM | 50 to 100 µg/mL (≈ 87.1 to 174 µM)
CNC(=O)c1c2cc(C3CC3)c(N(CCC3COC3)S(C)(=O)=O)cc2nn1-c1ccc(C)cc1 [Compound 3, 5-Cyclopropyl-N-methyl-2-(4-methylphenyl)-6-{(methylsulfonyl)[2-(oxetan-3-yl)ethyl]amino}-2H-indazole-3-carboxamide] |  |  | < 100 nM | < 100 nM | 12.5 to 25 µg/mL (≈ 25.9 to 51.8 µM)
CNC(=O)c1c2cc(C3CC3)c(N(CCC3(CNC(=O)OC(C)(C)C)COC3)S(C)(=O)=O)cc2nn1-c1ccc(C)cn1 [Compound 35, tert-butyl N-[[3-[2-[[5-cyclopropyl-3-(methylcarbamoyl)-2-(5-methyl-2-pyridyl)indazol-6-yl]-methylsulfonyl-amino]ethyl]oxetan-3-yl]methyl]carbamate] |  |  |  | 1000 to 10000 nM | 12.5 to 25 µg/mL (≈ 20.4 to 40.8 µM)
CNC(=O)c1c2cc(C3CC3)c(N(CCC3(OC)COC3)S(C)(=O)=O)cc2nn1-c1ccc(Cl)cc1 [Compound 36, 2-(4-chlorophenyl)-5-cyclopropyl-6-[2-(3-methoxyoxetan-3-yl)ethyl-methylsulfonyl-amino]-N-methyl-indazole-3-carboxamide] |  |  |  | 100 to 490 nM | 50 to 100 µg/mL (≈ 93.8 to 188 µM)
CNC(=O)c1c2cc(C3CC3)c(N(CC[C@@H]3CO[C@H]3C)S(C)(=O)=O)cc2nn1-c1ccc(Cl)cc1 (single isomer, unassigned) [Compound 32] |  |  | 100 to 490 nM | < 100 nM | 25 to 50 µg/mL (≈ 48.4 to 96.7 µM)
CNC(=O)c1c2cc(C3CC3)c(N(CCC3CN(C(C)=O)C3)S(C)(=O)=O)cc2nn1-c1ccc(Cl)cc1 [Compound 8, 6-{[2-(1-acetylazetidin-3-yl)ethyl](methylsulfonyl)amino}-2-(4-chlorophenyl)-5-cyclopropyl-N-methyl-2H-indazole-3-carboxamide] |  |  | 100 to 490 nM | < 100 nM | 25 to 50 µg/mL (≈ 45.9 to 91.9 µM)
CNC(=O)c1c2cc(C3CC3)c(N(CCC3OCC3C)S(C)(=O)=O)cc2nn1-c1ccc(Cl)cc1 (centres unmarked) [Compound 17, 3,5-anhydro-1-{[2-(4-chlorophenyl)-5-cyclopropyl-3-(methylcarbamoyl)-2H-indazol-6-yl](methylsulfonyl)amino}-1,2,4-trideoxy-4-methylpentitol] |  |  | 100 to 490 nM | 100 to 490 nM | 50 to 100 µg/mL (≈ 96.7 to 193 µM)
CNC(=O)c1c2cc(C3CC3)c(N(CC(F)C3COC3)S(C)(=O)=O)cc2nn1-c1ccc(Cl)cc1 (centres unmarked) [Compound 18, 2-(4-chlorophenyl)-5-cyclopropyl-6-{[2-fluoro-2-(oxetan-3-yl)ethyl](methylsulfonyl)amino}-N-methyl-2H-indazole-3-carboxamide] |  |  | < 100 nM | 100 to 490 nM | 50 to 100 µg/mL (≈ 96 to 192 µM)
CNC(=O)c1c2cc(C3CC3)c(N(CCC3(F)COC3)S(C)(=O)=O)cc2nn1-c1ccc(Cl)cc1 [Compound 26, 2-(4-chlorophenyl)-5-cyclopropyl-6-[2-(3-fluorooxetan-3-yl)ethyl-methylsulfonyl-amino]-N-methyl-indazole-3-carboxamide] |  |  | < 100 nM | < 100 nM | 25 to 50 µg/mL (≈ 48 to 96 µM)
CNC(=O)c1c2cc(C3CC3)c(N(CC[C@H]3CO[C@@H]3C)S(C)(=O)=O)cc2nn1-c1ccc(Cl)cc1 (single isomer, unassigned) [Compound 33] |  |  | 100 to 490 nM | < 100 nM | 50 to 100 µg/mL (≈ 96.7 to 193 µM)
CNC(=O)c1c2cc(C3CC3)c(N(CCC3(OC)CNC3)S(C)(=O)=O)cc2nn1-c1ccc(Cl)cc1 [Compound 29, 2-(4-chlorophenyl)-5-cyclopropyl-6-[2-(3-methoxyazetidin-3-yl)ethyl-methylsulfonyl-amino]-N-methyl-indazole-3-carboxamide] |  |  | 1000 to 10000 nM | 1000 to 10000 nM | 12.5 to 25 µg/mL (≈ 23.5 to 47 µM)
